Reference: patent publication US10005735B2, “Inhibitors of RPN11” (California Institute of Technology, priority 2015, dated 2018)

Columns and labels:
[1] = molecular target: Rpn11 (Homo sapiens (Human), UniProt O00487); test: Rpn11 activity assay (fluorescence polarization, Ub4-pepOG cleavage by 26S proteasome); assay type: biochemical; details: for Rpn11 assay activity (in words): screening, compared with 8TQ
Excerpt: Candidate compounds according to embodiments of the present invention were synthesized as described herein. […] In brief, this Rpn11 bioassay employs a fluorescent polarization readout based on the ability of the 26S proteasome to cleave the protein substrate including four tandem ubiquitin proteins fused to a peptide having a unique cysteine labeled with a fluorophore. Cleavage of this substrate by Rpn11 at the junction between the fourth ubiquitin and the peptide, releases the low molecular weight fluorescent peptide. Accordingly, inhibition of fluorescence correlates with inhibition of Rpn11. Inhibition is reported as the half maximal inhibitory concentration (IC50) for the candidate compound.
Rpn11 Activity Assay. […] In brief, in order to measure the Rpn11 activity, a synthetic peptide substrate, termed Ub4-pepOG, was engineered. […] Peptide substrate Ub4-pepOG consists of only 30 amino acids and therefore the decrease of polarization is mainly from deubiquitination but not the proteolysis of the peptide. Fluorescence polarization assay was performed in a low-volume 384 well solid black plate where the components are added in the follow sequence: 1) 5 μl compound in 3% DMSO or 3% DMSO control 2) 5 μl 26S proteasome (Enzo Life Sciences Inc, NY). […] Fluorescence polarization is measured using a PHERAstar (BMG labtech, Ortenberg, Germany) plate reader with excitation of 480 nm and emission of 520 nm filter set. […] Rpn11 activity was normalized to DMSO control and fitted using does-response curve.

[2] = tested on: Ub^G76V-GFP; test: Reporter degradation assay in Hela cells expressing Ub^G76V-GFP; assay type: cell-based; details: Homo sapiens, after MG132 removal, cycloheximide chase
Experimental: Characterization of the Compound Activity in Cells. […] After 4 hours, MG132 was removed and a cycloheximide (CHX) chase was initiated +/− different concentrations of test compound and the rate of reporter degradation was evaluated by monitoring GFP fluorescence by high throughput microscopy. The rate of fluorescence decrease was normalized to DMSO control and analyzed using does-response equation.

[3] = molecular target: Csn5 (Homo sapiens (Human), UniProt Q92905); test: Csn5 activity assay (fluorescence polarization, SCF^skp2-Nedd8OG, COP9 Signalosome Complex); assay type: biochemical; details: Table 2
Experimental: Csn5 Activity Assay. […] In brief, a fluorescent substrate termed SCF^skp2-Nedd8OG was produced to measure CSN5 activity in vitro. This assay measures the decrease in fluorescence polarization due to the decrease in apparent molecular weight of Oregon Green (OG) fluorophore (from the ˜175 kDa substrate to ˜9 kDa Nedd8OG) as a result of Csn5-mediated cleavage of the isopeptide bond that links Nedd8OG to SCF^Skp2. The assay was performed in a low-volume 384 well solid black plate comprising equal volumes of compound, substrate (SCF^skp2-Need8OG) and enzyme (purified COP9 Signalosome Complex, CSN). Fluorescence polarization was recorded using the same setting as for the Rpn11 activity assay.

[4] = molecular target: AMSH (Homo sapiens (Human), UniProt O95630); test: AMSH activity assay (DiUb^K63TAMRA cleavage, fluorescence); assay type: biochemical; details: Table 2
Chain of AMSH (O95630 whole entry): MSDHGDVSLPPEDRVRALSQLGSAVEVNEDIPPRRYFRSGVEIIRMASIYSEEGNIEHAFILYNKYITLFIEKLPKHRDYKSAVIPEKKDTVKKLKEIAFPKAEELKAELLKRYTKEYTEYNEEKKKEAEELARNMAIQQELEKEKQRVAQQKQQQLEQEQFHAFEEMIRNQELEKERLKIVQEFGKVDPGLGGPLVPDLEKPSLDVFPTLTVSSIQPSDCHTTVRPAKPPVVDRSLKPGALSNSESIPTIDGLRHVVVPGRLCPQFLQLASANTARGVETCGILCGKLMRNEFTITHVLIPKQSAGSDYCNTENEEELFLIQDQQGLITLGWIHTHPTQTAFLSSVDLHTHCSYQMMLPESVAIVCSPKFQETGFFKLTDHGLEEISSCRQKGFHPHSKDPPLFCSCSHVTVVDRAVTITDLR
Excerpt: AMSH Activity Assay. AMSH is known to selectively cleave ubiquitin chains in which the ubiquitins are joined via K63 of the proximal ubiquitin linked by an isopeptide bond to the carboxy terminus of the distal ubiquitin. […] In brief, DiUb^K63TAMRA was labeled with quench pairs TAMRA/QXL.

[5] = Table 2, 1 mM DTT in assay reduces disulfides to monomeric active species
[6] = Table 1, metal binding pharmacophore fragments

Chain of Rpn11 (O00487 whole entry, looked up, the tested form may be a part): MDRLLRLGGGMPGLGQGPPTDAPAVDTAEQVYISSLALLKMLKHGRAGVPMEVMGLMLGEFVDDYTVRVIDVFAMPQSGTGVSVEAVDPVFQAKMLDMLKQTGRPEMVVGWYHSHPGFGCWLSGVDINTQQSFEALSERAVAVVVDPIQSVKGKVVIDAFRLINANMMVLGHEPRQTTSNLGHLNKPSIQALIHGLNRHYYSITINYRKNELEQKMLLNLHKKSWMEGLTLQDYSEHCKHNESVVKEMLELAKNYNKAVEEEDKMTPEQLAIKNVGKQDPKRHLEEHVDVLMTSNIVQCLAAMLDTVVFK

## O=C(NCc1ccc(N2CCOCC2)cc1)c1cnc2c(SSc3cccc4cc(C(=O)NCc5ccc(N6CCOCC6)cc5)cnc34)cccc2c1 [Compound 21, 8,8′-Disulfanediylbis(N-(4-morpholinobenzyl)quinoline-3-carboxamide)]
[1]; [5]
  IC50: 0.8 µM
[2]
  IC50: > 10 µM

## O=C(NCc1ccccc1)c1ccc2cccc(SSc3cccc4ccc(C(=O)NCc5ccccc5)nc34)c2n1 [8,8′-Disulfanediylbis(N-benzylquinoline-2-carboxamide)]
[1]
  Rpn11 assay activity (in words): less active than 8TQ

## CNC(=O)c1cnc2c(SSc3cccc4cc(C(=O)NC)cnc34)cccc2c1 [Compound 2, 8,8′-Disulfanediylbis(N-methylquinoline-3-carboxamide)]
[3]
  IC50: 68 µM
[4]
  IC50: 4.8 µM

## O=C(CCCC[C@@H]1SC[C@@H]2NC(=O)N[C@@H]21)NCCOCCOCCOCCNC(=O)c1cnc2c(S)cccc2c1 [Compound 32]
[1]; [5]
  IC50: 0.4 µM
[3]
  IC50: 13.8 µM
[4]
  IC50: 0.4 µM
[2]
  IC50: 4.1 µM

## O=C(NCc1cccs1)c1cnc2c(SSc3cccc4cc(C(=O)NCc5cccs5)cnc34)cccc2c1 [Compound 8, 8,8′-Disulfanediylbis(N-(thiophen-2-ylmethyl)quinoline-3-carboxamide)]
[1]; [5]
  IC50: 0.8 µM
[3]
  IC50: 16 µM
[4]
  IC50: 1.3 µM

## COC(=O)c1ccc2cccc(SSc3cccc4ccc(C(=O)OC)nc34)c2n1 [Dimethyl 8,8′-disulfanediylbis(quinoline-2-carboxylate)]
[1]
  Rpn11 assay activity (in words): less active than 8TQ

## Nc1cccc2cccnc12 [reference compound]
[1]; [6]
  IC50: > 100 µM

## O=C(NCc1ccco1)c1cnc2c(SSc3cccc4cc(C(=O)NCc5ccco5)cnc34)cccc2c1 [Compound 7, 8,8′-Disulfanediylbis(N-(furan-2-ylmethyl)quinoline-3-carboxamide)]
[1]; [5]
  IC50: 0.9 µM
[3]
  IC50: 0.2 µM
[4]
  IC50: 0.9 µM

## Oc1cccc2cccnc12 [reference compound]
[1]; [6]
  IC50: > 100 µM

## Sc1cccc2cccnc12 [Compound 8TQ, 8-thioquinoline, reference compound]
[1]; [6]
  IC50: 2.8 ± 0.35 µM
[1]
  Rpn11 assay activity (in words): highly potent fragment

## Sc1ccnc2cccnc12 [Compound 8e, 1,5-Naphthyridine-4-thiol]
[1]; [6]
  IC50: 15 µM

## Cc1ccc2cccc(S)c2n1 [Compound 9c, 2-Methylquinoline-8-thiol]
[1]
  Rpn11 assay activity (in words): less active than 8TQ

## Sc1cccc2ncccc12 [reference compound]
[1]; [6]
  IC50: > 100 µM

## Sc1cccc2ccccc12 [reference compound]
[1]; [6]
  IC50: > 100 µM

## CSc1cccc2cccnc12 [reference compound]
[1]; [6]
  IC50: > 100 µM

## O=C(NCC1CCCO1)c1cnc2c(SSc3cccc4cc(C(=O)NCC5CCCO5)cnc34)cccc2c1 (stereo not shown) [Compound 6, 8,8′-Disulfanediylbis(N-((tetrahydrofuran-2-yl)methyl)quinoline-3-carboxamide)]
[1]; [5]
  IC50: 4.6 µM
[3]
  IC50: 41.3 µM
[4]
  IC50: 6.8 µM

## O=C(NCCc1ccco1)c1cnc2c(SSc3cccc4cc(C(=O)NCCc5ccco5)cnc34)cccc2c1 [Compound 10, 8,8′-Disulfanediylbis(N-(2-(furan-2-yl)ethyl)quinoline-3-carboxamide)]
[3]
  IC50: 6.9 µM
[4]
  IC50: 1.7 µM
[2]
  IC50: 1.4 µM

## O=C(NCc1ccc2c(c1)OCO2)c1cnc2c(SSc3cccc4cc(C(=O)NCc5ccc6c(c5)OCO6)cnc34)cccc2c1 [Compound 20, 8,8′-Disulfanediylbis(N-(benzo[d][1,3]dioxol-5-ylmethyl)quinoline-3-carboxamide)]
[1]; [5]
  IC50: 0.9 µM
[3]
  IC50: 7 µM
[2]
  IC50: > 10 µM

## O=C(O)c1ccc2cccc(SSc3cccc4ccc(C(=O)O)nc34)c2n1 [Compound 14b, 8,8′-Disulfanediylbis(quinoline-2-carboxylic acid)]
[1]
  Rpn11 assay activity (in words): less active than 8TQ

## O=C(NCc1cccs1)c1ccc2cccc(SSc3cccc4ccc(C(=O)NCc5cccs5)nc34)c2n1 [8,8′-Disulfanediylbis(N-(thiophen-2-ylmethyl)quinoline-2-carboxamide)]
[1]
  Rpn11 assay activity (in words): less active than 8TQ

## Cc1cccc2cccnc12 [reference compound]
[1]; [6]
  IC50: > 100 µM
